From PMC11620503 (Antimicrobial Agents and Chemotherapy, 2024)
≈ marks a conversion by molar mass, not a printed value. Read-outs that look alike come from different tables or passages of the source.

Key:
Experiment in all cases: MIC, broth microdilution
[1] = test system: 207 Enterobacterales including carbapenem-resistant isolates; type: cell-based
[2] = test system: MEM-nonsusceptible Enterobacterales; type: cell-based
[3] = test system: serine-carbapenemase-producing isolates (Enterobacterales); type: cell-based
[4] = test system: MBL-producing isolates (Enterobacterales); type: cell-based
[5] = test system: 55 isolates of A. baumannii; type: cell-based, Acinetobacter baumannii; conditions: Acinetobacter baumannii (55); for CLSI MIC interpretation I (intermediate) / CLSI MIC interpretation R (resistant) / CLSI MIC interpretation S (susceptible): CLSI breakpoints, marked c: breakpoints for β-lactam alone; for MIC50 / MIC90: fixed concentration (μg/mL) in label; for MIC50: read-out: MIC50; for MIC90: read-out: MIC90
96 P. aeruginosa = type: cell-based, Pseudomonas aeruginosa; conditions: Pseudomonas aeruginosa (96); for CLSI MIC interpretation I (intermediate) / CLSI MIC interpretation R (resistant) / CLSI MIC interpretation S (susceptible): CLSI breakpoints, marked c: breakpoints for β-lactam alone; for MIC50 / MIC90: fixed concentration (μg/mL) in label; for MIC50: read-out: MIC50; for MIC90: read-out: MIC90
[6] = test system: MEM-, imipenem/relebactam-, and ceftolozane/tazobactam-nonsusceptible P. aeruginosa; type: cell-based, Pseudomonas aeruginosa; conditions: for CLSI MIC interpretation I (intermediate) / CLSI MIC interpretation R (resistant) / CLSI MIC interpretation S (susceptible): marked c: breakpoints for β-lactam alone; for MIC50 / MIC90: Pseudomonas aeruginosa; for MIC50: read-out: MIC50; for MIC90: read-out: MIC90
[7] = test system: MEM-nonsusceptible Enterobacterales with serine-carbapenemases; type: cell-based
[8] = test system: MEM-nonsusceptible Enterobacterales with metallo-carbapenemases; type: cell-based
[9] = Ceftolozane/tazobactam-nonsusceptible Pseudomonas aeruginosa (45), CLSI breakpoints
[10] = Imipenem/relebactam-nonsusceptible Pseudomonas aeruginosa (43), CLSI breakpoints
[11] = MEM-nonsusceptible Pseudomonas aeruginosa (76), CLSI breakpoints
[12] = Ceftolozane/tazobactam-nonsusceptible Pseudomonas aeruginosa (45), fixed concentration (μg/mL) in label
[13] = Imipenem/relebactam-nonsusceptible Pseudomonas aeruginosa (43), fixed concentration (μg/mL) in label
[14] = MEM-nonsusceptible Pseudomonas aeruginosa (76), fixed concentration (μg/mL) in label
[15] = All Enterobacterales (207), cefiderocol 205 isolates, CLSI breakpoints, marked c: breakpoints for β-lactam alone, tigecycline: FDA breakpoints
[16] = MEM-nonsusceptible Enterobacterales (127), cefiderocol 126 isolates, CLSI breakpoints, marked c: breakpoints for β-lactam alone, tigecycline: FDA breakpoints
[17] = Enterobacterales with serine-carbapenemases (80), CLSI breakpoints, marked c: breakpoints for β-lactam alone, tigecycline: FDA breakpoints
[18] = Enterobacterales with metallo-carbapenemases (74), cefiderocol 73 isolates, CLSI breakpoints, marked c: breakpoints for β-lactam alone, tigecycline: FDA breakpoints
[19] = MEM-nonsusceptible Enterobacterales with serine-carbapenemases (58), CLSI breakpoints, marked c: breakpoints for β-lactam alone, tigecycline: FDA breakpoints
[20] = MEM-nonsusceptible Enterobacterales with metallo-carbapenemases (55), cefiderocol 54 isolates, CLSI breakpoints, marked c: breakpoints for β-lactam alone, tigecycline: FDA breakpoints

## C[C@@H](O)[C@H]1C(=O)N2C(C(=O)O)=C(SCCN=CN)C[C@H]12 [Imipenem]
[1]
  CLSI MIC interpretation I (intermediate): 7.7%
  CLSI MIC interpretation R (resistant): 55.6%
  CLSI MIC interpretation S (susceptible): 36.7%
  MIC50: 4 µg/mL (≈ 13.4 µM)
  MIC90: 32 µg/mL (≈ 107 µM)
[2]
  CLSI MIC interpretation I (intermediate): 10.2%
  CLSI MIC interpretation R (resistant): 79.5%
  CLSI MIC interpretation S (susceptible): 10.2%
  MIC50: 8 µg/mL (≈ 26.7 µM)
  MIC90: > 32 µg/mL
[3]
  CLSI MIC interpretation I (intermediate): 7.5%
  CLSI MIC interpretation R (resistant): 68.8%
  CLSI MIC interpretation S (susceptible): 23.8%
  MIC50: 8 µg/mL (≈ 26.7 µM)
  MIC90: > 32 µg/mL
[4]
  CLSI MIC interpretation I (intermediate): 9.5%
  CLSI MIC interpretation R (resistant): 70.3%
  CLSI MIC interpretation S (susceptible): 20.3%
  MIC50: 4 µg/mL (≈ 13.4 µM)
  MIC90: > 32 µg/mL
[5]
  CLSI MIC interpretation I (intermediate): 3.6%
  CLSI MIC interpretation R (resistant): 87.3%
  CLSI MIC interpretation S (susceptible): 9.1%
  MIC50: 32 µg/mL (≈ 107 µM)
  MIC90: > 32 µg/mL
96 P. aeruginosa
  CLSI MIC interpretation I (intermediate): 3.1%
  CLSI MIC interpretation R (resistant): 83.3%
  CLSI MIC interpretation S (susceptible): 13.5%
  MIC50: 16 µg/mL (≈ 53.4 µM)
  MIC90: > 32 µg/mL
[6]; [9]
  CLSI MIC interpretation I (intermediate): 0%
  CLSI MIC interpretation R (resistant): 95.6%
  CLSI MIC interpretation S (susceptible): 4.4%
[6]; [10]
  CLSI MIC interpretation I (intermediate): 0%
  CLSI MIC interpretation R (resistant): 97.7%
  CLSI MIC interpretation S (susceptible): 2.3%
[6]; [11]
  CLSI MIC interpretation I (intermediate): 2.6%
  CLSI MIC interpretation R (resistant): 93.4%
  CLSI MIC interpretation S (susceptible): 3.9%
[6]; [12]
  MIC50: > 32 µg/mL
  MIC90: > 32 µg/mL
[6]; [13]
  MIC50: > 32 µg/mL
  MIC90: > 32 µg/mL
[6]; [14]
  MIC50: 32 µg/mL (≈ 107 µM)
  MIC90: > 32 µg/mL
[7]
  CLSI MIC interpretation I (intermediate): 10.3%
  CLSI MIC interpretation R (resistant): 84.5%
  CLSI MIC interpretation S (susceptible): 5.2%
  MIC50: 8 µg/mL (≈ 26.7 µM)
  MIC90: > 32 µg/mL
[8]
  CLSI MIC interpretation I (intermediate): 9.1%
  CLSI MIC interpretation R (resistant): 81.8%
  CLSI MIC interpretation S (susceptible): 9.1%
  MIC50: 16 µg/mL (≈ 53.4 µM)
  MIC90: > 32 µg/mL

## C[C@H]1COc2c(N3CCN(C)CC3)c(F)cc3c(=O)c(C(=O)O)cn1c23 [Levofloxacin]
[1]; [15]
  CLSI MIC interpretation I (intermediate): 3.9%
  CLSI MIC interpretation R (resistant): 72%
  CLSI MIC interpretation S (susceptible): 24.2%
[1]; read-out: MIC50
  MIC50: 16 µg/mL (≈ 44.3 µM)
[1]; read-out: MIC90
  MIC90: 64 µg/mL (≈ 177 µM)
[2]; [16]
  CLSI MIC interpretation I (intermediate): 2.4%
  CLSI MIC interpretation R (resistant): 79.5%
  CLSI MIC interpretation S (susceptible): 18.1%
[2]; MEM-nonsusceptible Enterobacterales (127), cefiderocol 126 isolates, fixed concentration (μg/mL) in label, read-out: MIC50
  MIC50: 32 µg/mL (≈ 88.6 µM)
[2]; MEM-nonsusceptible Enterobacterales (127), cefiderocol 126 isolates, fixed concentration (μg/mL) in label, read-out: MIC90
  MIC90: 64 µg/mL (≈ 177 µM)
[3]; [17]
  CLSI MIC interpretation I (intermediate): 1.3%
  CLSI MIC interpretation R (resistant): 71.3%
  CLSI MIC interpretation S (susceptible): 27.5%
[3]; Enterobacterales with serine-carbapenemases (80), fixed concentration (μg/mL) in label, read-out: MIC50
  MIC50: 16 µg/mL (≈ 44.3 µM)
[3]; Enterobacterales with serine-carbapenemases (80), fixed concentration (μg/mL) in label, read-out: MIC90
  MIC90: > 64 µg/mL
[4]; [18]
  CLSI MIC interpretation I (intermediate): 6.8%
  CLSI MIC interpretation R (resistant): 81.1%
  CLSI MIC interpretation S (susceptible): 12.2%
[4]; Enterobacterales with metallo-carbapenemases (74), cefiderocol 73 isolates, fixed concentration (μg/mL) in label, read-out: MIC50
  MIC50: 32 µg/mL (≈ 88.6 µM)
[4]; Enterobacterales with metallo-carbapenemases (74), cefiderocol 73 isolates, fixed concentration (μg/mL) in label, read-out: MIC90
  MIC90: > 64 µg/mL
[5]
  CLSI MIC interpretation I (intermediate): 10.9%
  CLSI MIC interpretation R (resistant): 89.1%
  CLSI MIC interpretation S (susceptible): 0%
  MIC50: 16 µg/mL (≈ 44.3 µM)
  MIC90: 64 µg/mL (≈ 177 µM)
96 P. aeruginosa
  CLSI MIC interpretation I (intermediate): 4.2%
  CLSI MIC interpretation R (resistant): 81.3%
  CLSI MIC interpretation S (susceptible): 14.6%
  MIC50: 32 µg/mL (≈ 88.6 µM)
  MIC90: 64 µg/mL (≈ 177 µM)
[6]; I, intermediate (including susceptible dose-dependent), CLSI breakpoints, last subgroup of Table 2
  CLSI MIC interpretation (%) I: 2.2%
[6]; [10]
  CLSI MIC interpretation I (intermediate): 0%
  CLSI MIC interpretation R (resistant): 100%
  CLSI MIC interpretation S (susceptible): 0%
[6]; [11]
  CLSI MIC interpretation I (intermediate): 1.3%
  CLSI MIC interpretation R (resistant): 89.5%
  CLSI MIC interpretation S (susceptible): 9.2%
[6]; [13]
  MIC50: 32 µg/mL
  MIC90: > 64 µg/mL
[6]; [14]
  MIC50: 32 µg/mL (≈ 88.6 µM)
  MIC90: > 64 µg/mL
[6]; Table 2, broth microdilution
  MIC50: 32 µg/mL (≈ 88.6 µM)
  MIC90: 64 µg/mL (≈ 177 µM)
[6]; R, resistant, CLSI breakpoints, last subgroup of Table 2
  CLSI MIC interpretation (%) R: 91.1%
[6]; S, susceptible, CLSI breakpoints, last subgroup of Table 2
  CLSI MIC interpretation (%) S: 6.7%
[7]; [19]
  CLSI MIC interpretation I (intermediate): 0%
  CLSI MIC interpretation R (resistant): 75.9%
  CLSI MIC interpretation S (susceptible): 24.1%
[7]; MEM-nonsusceptible Enterobacterales with serine-carbapenemases (58), fixed concentration (μg/mL) in label, read-out: MIC50
  MIC50: 32 µg/mL (≈ 88.6 µM)
[7]; MEM-nonsusceptible Enterobacterales with serine-carbapenemases (58), fixed concentration (μg/mL) in label, read-out: MIC90
  MIC90: 64 µg/mL (≈ 177 µM)
[8]; [20]
  CLSI MIC interpretation I (intermediate): 5.5%
  CLSI MIC interpretation S (susceptible): 5.5%
[8]; MEM-nonsusceptible Enterobacterales with metallo-carbapenemases (55), cefiderocol 54 isolates, fixed concentration (μg/mL) in label, read-out: MIC50
  MIC50: 32 µg/mL (≈ 88.6 µM)
[8]; MEM-nonsusceptible Enterobacterales with metallo-carbapenemases (55), cefiderocol 54 isolates, fixed concentration (μg/mL) in label, read-out: MIC90
  MIC90: > 64 µg/mL
